The values below come from US20260022122A1 (Checkmate Therapeutics Inc., priority 2022, published 2026).

Sequence of NamPT (P43490 whole entry): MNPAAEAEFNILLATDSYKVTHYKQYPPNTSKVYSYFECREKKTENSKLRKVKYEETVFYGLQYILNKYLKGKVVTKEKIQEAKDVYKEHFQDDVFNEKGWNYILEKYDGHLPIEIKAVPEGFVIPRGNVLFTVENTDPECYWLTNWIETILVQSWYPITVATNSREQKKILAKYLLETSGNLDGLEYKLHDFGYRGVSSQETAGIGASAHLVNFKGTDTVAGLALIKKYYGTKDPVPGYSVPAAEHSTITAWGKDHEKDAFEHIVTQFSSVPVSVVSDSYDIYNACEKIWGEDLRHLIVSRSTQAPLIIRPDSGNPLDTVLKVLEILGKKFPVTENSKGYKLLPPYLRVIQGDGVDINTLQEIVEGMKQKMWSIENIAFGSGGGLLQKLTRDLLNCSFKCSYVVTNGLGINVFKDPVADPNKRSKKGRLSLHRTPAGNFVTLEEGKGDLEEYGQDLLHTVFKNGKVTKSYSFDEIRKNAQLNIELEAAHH

This assay has as its target NamPT (Homo sapiens (Human), UniProt P43490). The experiment in a line: Measurement of NamPT inhibitory ability IC50 (NamPT colorimetric assay kit, Abcam ab221819). The format is biochemical. The following applies: NamPT recombinant protein, WST-1 absorbance at 450 nm; class key in μM. The method, then:
To test the effect of the compound prepared in each Example on the substrate decomposition rate (Vmax/min) mediated by NamPT enzyme, IC50 was calculated. In this experiment, the NamPT colorimetric assay kit (ab221819) produced by Abcam was used, and Graph prism software was used for IC50 calculation. PRPP, ATP, NMNAT1, NamPT recombinant proteins, and various concentrations of the compound of each Example (half-log step dilution from 100 μM) were added to nicotinamide to synthesize nicotinamide adenine dinucleotide (NAD) from the nicotinamide, and a total of 60 μL of the reaction solution was reacted at room temperature for 1 hour. WST-1 formazan converted by NAD generated by adding WST-1 was measured. The result of the reaction was obtained by the following formula by measuring absorbance using EnVision2105 (PerkinElmer) at 450 nm for 60 minutes at 2-minute intervals.
In Mathematical Formula 1, T1 and T2 are arbitrary times, and A1 and A2 represent the absorbance measured at T1 and T2 at 450 nm, respectively.
The results of measuring the NamPT inhibition activity of the compound of each Example obtained through the above experiment are shown in Table 1 in the unit of IC50 (nM), and the result values are expressed as follows.
For orientation: Formazan colour is commonly taken as a measure of viable cells.
With `CCCOc1ccc2oc(-c3ccc(CNC(=O)c4cnc5nccn5c4)cc3)nc2c1` [Example 54, N-[[4-(5-propoxy-1,3-benzoxazol-2-yl)phenyl]methyl]imidazo[1,2-a]pyrimidin-6-carboxamide], the IC50 (in general, the point on the concentration scale where inhibition reaches its midpoint) fell in the range of 0.051 to 0.1 µM. The same measure for `CCc1ccc2oc(-c3ccc(CNC(=O)c4cnc5nccn5c4)cc3)nc2c1` [Example 44, N-[[4-(5-ethyl-1,3-benzoxazol-2-yl)phenyl]methyl]imidazo[1,2-a]pyrimidin-6-carboxamide]: less than 0.05 µM; for `COc1ccc2nc(-c3ccc(CNC(=O)c4cnc5nccn5c4)cc3)sc2c1` [Example 52, N-[[4-(6-methoxy-1,3-benzothiazol-2-yl)phenyl]methyl]imidazo[1,2-a]pyrimidin-6-carboxamide]: less than 0.05 µM. For the compound `Cc1ccc2nc(-c3ccc(CNC(=O)c4cnc5nccn5c4)cc3)oc2c1` [Example 1, N-[[4-(6-methyl-1,3-benzoxazol-2-yl)phenyl]methyl]imidazo[1,2-a]pyrimidin-6-carboxamide], the IC50 was 0.051 to 0.1 µM. The same measure for `O=C(NCc1ccc(-c2nc3cc(Cl)c(C(F)(F)F)cc3o2)cc1)c1cnc2nccn2c1` [Example 42, N-[[4-[5-chloro-6-(trifluoromethyl)-1,3-benzoxazol-2-yl]phenyl]methyl]imidazo[1,2-a]pyrimidin-6-carboxamide]: less than 0.05 µM. With `CCS(=O)(=O)c1ccc2oc(-c3ccc(CNC(=O)c4cnc5nccn5c4)cc3)nc2c1` [Example 37, N-[[4-(5-ethylsulfonyl-1,3-benzoxazol-2-yl)phenyl]methyl]imidazo[1,2-a]pyrimidin-6-carboxamide], the IC50 fell in the range of 0.11 to 1 µM. With `O=C(NCc1ccc(-c2nc3ccc(-c4ccccc4)cc3o2)cc1)c1cnc2nccn2c1` [Example 59, N-[[4-(6-phenyl-1,3-benzoxazol-2-yl)phenyl]methyl]imidazo[1,2-a]pyrimidin-6-carboxamide] the figure was greater than 1 µM; with `COc1cc2nc(-c3ccc(CNC(=O)c4cnc5nccn5c4)cc3)oc2cc1C` [Example 43, N-[[4-(5-methoxy-6-methyl-1,3-benzoxazol-2-yl)phenyl]methyl]imidazo[1,2-a]pyrimidin-6-carboxamide], less than 0.05 µM.

In the case of `Cc1ccc2nc(-c3ccc(CNC(=O)c4ccc5nccn5c4)cc3)oc2c1` [Example 61, N-[[4-(6-methyl-1,3-benzoxazol-2-yl)phenyl]methyl]imidazo[1,2-a]pyridin-6-carboxamide], the IC50 was in the range of 0.11 to 1 µM. The same measure for `O=C(NCc1ccc(-c2nc3cc(CO)ccc3o2)cc1)c1cnc2nccn2c1` [Example 30, N-[[4-[5-(hydroxymethyl)-1,3-benzoxazol-2-yl]phenyl]methyl]imidazo[1,2-a]pyrimidin-6-carboxamide]: less than 0.05 µM; for `O=C(NCc1ccc(-c2nc3ccc(Cl)nc3o2)cc1)c1cnc2nccn2c1` [Example 60, N-[[4-(5-chlorooxazolo[5,4-b]pyridin-2-yl)phenyl]methyl]imidazo[1,2-a]pyrimidin-6-carboxamide]: less than 0.05 µM; for `O=C(NCc1ccc(-c2nc3ccc(Cl)cc3s2)cc1)c1cnc2nccn2c1` [Example 50, N-[[4-(6-chloro-1,3-benzothiazol-2-yl)phenyl]methyl]imidazo[1,2-a]pyrimidin-6-carboxamide]: 0.051 to 0.1 µM.

For `CCS(=O)(=O)c1ccc2nc(-c3ccc(CNC(=O)c4cnc5nccn5c4)cc3)oc2c1` [Example 14, N-[[4-(6-ethylsulfonyl-1,3-benzoxazol-2-yl)phenyl]methyl]imidazo[1,2-a]pyrimidin-6-carboxamide], the IC50 is less than 0.05 µM. The same measure for `O=C(NCc1ccc(-c2nc3cnc(Cl)cc3o2)cc1)c1cnc2nccn2c1` [Example 62]: 0.051 to 0.1 µM; for `COc1ccc2sc(-c3ccc(CNC(=O)c4cnc5nccn5c4)cc3)nc2c1` [Example 51, N-[[4-(5-methoxy-1,3-benzothiazol-2-yl)phenyl]methyl]imidazo[1,2-a]pyrimidin-6-carboxamide]: less than 0.05 µM; for `Cc1ccc2nc(-c3ccc(CNC(=O)c4cnc5nccn5c4)c(F)c3)oc2c1` [Example 35, N-[[2-fluoro-4-(6-methyl-1,3-benzoxazol-2-yl)phenyl]methyl]imidazo[1,2-a]pyrimidin-6-carboxamide]: less than 0.05 µM. With `Cc1cccc2oc(-c3ccc(CNC(=O)c4cnc5nccn5c4)cc3)nc12` [Example 20, N-[[4-(4-methyl-1,3-benzoxazol-2-yl)phenyl]methyl]imidazo[1,2-a]pyrimidin-6-carboxamide] the figure was 0.11 to 1 µM; with `O=C(NCc1ccc(-c2nc3cc(Oc4ccccc4)ccc3o2)cc1)c1cnc2nccn2c1` [Example 53, N-[[4-(5-phenoxy-1,3-benzoxazol-2-yl)phenyl]methyl]imidazo[1,2-a]pyrimidin-6-carboxamide], less than 0.05 µM. The same measure for `O=C(O)c1ccc2nc(-c3ccc(CNC(=O)c4cnc5nccn5c4)cc3)oc2c1` [Example 5, 2-[4-[(imidazo[1,2-a]pyrimidin-6-carbonylamino)methyl]phenyl]-1,3-benzoxazol-6-carboxylic acid]: 0.11 to 1 µM; for `CCC(=O)Nc1ccc2oc(-c3ccc(CNC(=O)c4cnc5nccn5c4)cc3)nc2c1` [Example 15, N-[[4-[5-(propanoylamino)-1,3-benzoxazol-2-yl]phenyl]methyl]imidazo[1,2-a]pyrimidin-6-carboxamide]: 0.11 to 1 µM. As for `O=C(NCc1ccc(-c2nc3cc(O)ccc3o2)cc1)c1cnc2nccn2c1` [Example 23, N-[[4-(5-hydroxy-1,3-benzoxazol-2-yl)phenyl]methyl]imidazo[1,2-a]pyrimidin-6-carboxamide], the concentration for half-maximal inhibition (IC50) is less than 0.05 µM. For `CCc1ccc2nc(-c3ccc(CNC(=O)c4cnc5nccn5c4)cc3)oc2c1` [Example 45, N-[[4-(6-ethyl-1,3-benzoxazol-2-yl)phenyl]methyl]imidazo[1,2-a]pyrimidin-6-carboxamide], the concentration for half-maximal inhibition (IC50) was less than 0.05 µM. The same measure for `COc1ccc2oc(-c3ccc(CNC(=O)c4cnc5nccn5c4)cc3)nc2c1` [Example 7, N-[[4-(5-methoxy-1,3-benzoxazol-2-yl)phenyl]methyl]imidazo[1,2-a]pyrimidin-6-carboxamide]: less than 0.05 µM. `O=C(NCc1ccc(-c2nc3cnccc3o2)cc1)c1cnc2nccn2c1` [Example 36, N-[(4-oxazolo[4,5-c]pyridin-2-ylphenyl)methyl]imidazo[1,2-a]pyrimidin-6-carboxamide]: the IC50 fell in the range of 0.11 to 1 µM. Regarding `CCOC(=O)c1ccc2oc(-c3ccc(CNC(=O)c4cnc5nccn5c4)cc3)nc2c1` [Example 29, ethyl 2-[4-[(imidazo[1,2-a]pyrimidin-6-carbonylamino)methyl]phenyl]-1,3-benzoxazol-5-carboxylate], the IC50 was less than 0.05 µM. With `Cc1ccc2nc(-c3ccc(CNC(=O)c4cnc5nccn5c4)cc3)sc2c1` [Example 8, N-[[4-(6-methyl-1,3-benzothiazol-2-yl)phenyl]methyl]imidazo[1,2-a]pyrimidin-6-carboxamide] the figure was less than 0.05 µM; with `O=C(NCc1ccc(-c2nc3ccc(Oc4cccnc4)cc3o2)cc1)c1cnc2nccn2c1` [Example 58, N-[[4-[6-(3-pyridyloxy)-1,3-benzoxazol-2-yl]phenyl]methyl]imidazo[1,2-a]pyrimidin-6-carboxamide], less than 0.05 µM.
